Tests used:
[1] = tested on: COS7 cells; conditions: polymers in equimolar ratios to their representation in histone H2A; cited from earlier work
[2] = tested on: COS-7 cells; assay: Transfection assay (β-galactosidase reporter plasmid pCMVβ complexed with H2A-derived peptide); format: cell-based, African green monkey; conditions: for transfection activity (β-galactosidase production): peptide at equimolar ratio to peak conditions of peptide 1 (36-mer), also 2× and ½× molar, FIG. 1; for transfection activity (DNA delivery) at the 17-mer's own optimal concentration: much higher molar ratio than 36-mer
Text: The transfection assay is based on an in vitro assay previously described by J. H. Felgner et al. (Feigner et al., Proc. Natl. Acad. Sci., USA, 84:7413-7417, […]) with the following modifications: COS-7 (African green monkey SV40-transformed kidney cells, American Type Culture Collection, Rockville, Md.) were maintained in Dulbecco's modified eagle's medium (Biowhittaker, Walkersville, Md.) supplemented with 10% heat inactivated fetal bovine serum (Gemini Bio-products Inc., Calabras, Calif.), […] glutamine (Gemini Bio-products Inc., Calabras, Calif.), and 100U Penicillin-100 μg Streptomycin (Gemini Bio-products Inc., Calabras, Calif.). Other cells useful for transfection are 3T3, CHO-K1, HEPG2 and the like cell lines. The cells were harvested with 0.05% Trypsin-0.53 mM EDTA4Na (Life Technologies, Gaithersburg, Md.), pelleted, resuspended in their usual culture medium, diluted in 0.85% NaCl (Sigma, St. Louis, Mo.), and counted in a Coulter Z1® apparatus (Coulter Corporation, Miami, Fla.). COS-7 cells were plated in 96-well flat bottom tissue culture treated polystyrene plates (Corning Inc., Corning, N.Y.) at a density of […] cells per well and grown overnight in a humidified incubator at 37° C. in the presence of 4% CO2. Culture medium was aspirated from the overnight cultures of COS-7 cells, and the cells were overlaid with 75 μl/well of the binary DNA-histone H2A-derived peptide complex, or the corresponding controls. Four hours after transfection, 37.5 μl of Opti-MEM®1, a Tris-Acetate-based (Life Technologies, Gaithersburg, Md.) containing 30% heat inactivated fetal bovine serum (Gemini Bio-products Inc., Celebres, Calif.) was added to each well. Twenty-four hours post-transfection […] of Opti-MEM®1 containing 10% heat inactivated fetal bovine serum (Gemini Bio-products Inc., Celebres, Calif.) was added to each well Forty-eight hours post-transfection, all of the medium in each well was removed. Fifty μl of lysis buffer (0.1% Triton X-100, […] Tris pH 8.0) was added to each well. The plates were then frozen at −70° C. and thawed once. Fifty μl of phosphate-buffered saline (PBS) pH 7.4 was added to each well except for the last column The last column was reserved for a β-galactosidase standard curve. […] In the presence of β-galactosidase, D-galactose is released from CPRG, yielding chlorophenol red; the red reaction product was used to quantitate the amount of β-galactosidase produced. […] The plates were read in a Thermomax plate reader (Molecular Devices Incorporated, Sunnyvale, Calif.) at 575 nm. The optical density values obtained in test wells were then compared to those in the column containing the β-galactosidase standard and the result was expressed as the quantity of β-galactosidase produced per well. […]

[3] = Circular dichroism; format: physicochemical; conditions: 70 μM in 120 mM Tris acetate pH 8; 200-260 nm
Procedure: Circular dichroism experiments were performed using a Circular Dichroism Spectrometer (model 62DS) at wavelengths ranging from 200-260 nm In all cases, three readings were taken of a 300 μl sample of 70 μM histone H2A or 70 μM histone H2A-derived peptide in 120 mM Tris acetate pH 8. The average reading for every wavelength tested is plotted as a function of degrees of ellipticity.
Circular dichroism of peptide was performed on four samples: the full length histone H2A molecule, peptide 1 (36-mer), peptide P1 (17-mer) and peptide 12.

[4] = tested on: COS-7 cells; assay: X-gal staining of transfected cells; format: cell-based, African green monkey
Text: The difference between one of the effective peptides (amino acids 1-36) and the peptide composed of the first 25 amino acids is the inclusion of an α-helical motif located between amino acids 27-35.

Compound | transfection (β-galactosidase reporter plasmid) [1] | transfection activity (β-galactosidase production) [2] | other results
NCCCCNCCCN [spermidine] | ineffective | – | –
NCCCNCCCCNCCCN [spermine] | ineffective | – | –
KTRSSRAGLQFPVGRVHRIIRK [Peptide 5R] | – | significant activity | –
P1: 17-mer that represents amino acids 18-34 of the histone H2A molecule (RSSRAGLQFPVGRVHRL; UniProt P0C0S8 18-34, looked up, fragment) [Peptide P1] | – | only background activity | circular dichroism, α-helical structure (minima at 208 and 222 nm) [3]: some degree of minima at around 208; COS-7 cells transfected (X-gal staining) [4]: less than 1%; transfection activity (DNA delivery) at the 17-mer's own optimal concentration ([2]; FIG. 2): effective in DNA transfection and delivery; transfection activity (DNA delivery) at the 17-mer's own optimal concentration ([2]; FIG. 2, listed as 17-mer): active in DNA delivery

— patent publication US20040102606A1, “Histone H2A -derived peptides useful in gene delivery” (priority 2003, published 2004)
